Assay results published in ChEMBL document CHEMBL4431305, “Chermesins A-D: Meroterpenoids with a Drimane-Type Spirosesquiterpene Skeleton from the Marine Algal-Derived Endophytic Fungus Penicillium chermesinum EN-480” (J Nat Prod, 2016).
Values after ≈ are worked out from the molar mass of the structure shown. Active and inactive are the calls of the source. The calls are words filed in the database; no cut-off is given here.

What was measured:
Candida albicans = assay: Antimicrobial activity against Candida albicans by microplate assay; format: functional
Escherichia coli = assay: Antimicrobial activity against Escherichia coli by microplate assay; format: functional
Micrococcus luteus = assay: Antimicrobial activity against Micrococcus luteus by microplate assay; format: functional
Vibrio alginolyticus = assay: Antimicrobial activity against Vibrio alginolyticus by microplate assay; format: functional
[1] = Toxicity in Artemia salina assessed as lethality at 100 ug/ml measured after 6 to 24 hrs; format: organism-based; conditions: in vivo

CC1=CC(=O)C(C)=C2O[C@@]3(C[C@]12C)[C@@H](C)CC[C@H]1C(C)(C)C(=O)CC[C@@]13C
MIC (Candida albicans): 64 µg/mL (≈ 173 µM) | MIC (Escherichia coli): 64 µg/mL (≈ 173 µM) | MIC (Micrococcus luteus): 8 µg/mL (≈ 21.6 µM) | MIC (Vibrio alginolyticus): 64 µg/mL (≈ 173 µM) | mortality at 100 ug/ml [1]: < 60%

COC(=O)[C@@H]1C(=O)C(C)=C2O[C@@]3(C[C@]2(C)[C@H]1C)[C@@H](C)[C@@H](O)C[C@H]1C(C)(C)[C@@H](O)CC[C@@]13C
MIC (Candida albicans): inactive | MIC (Escherichia coli): inactive | MIC (Micrococcus luteus): inactive | MIC (Vibrio alginolyticus): inactive | mortality at 100 ug/ml [1]: < 60%

CC1=C2O[C@@]3(C[C@]2(C)C(C)=C(C(=O)O)C1=O)[C@@H](C)CC[C@H]1C(C)(C)C(=O)CC[C@@]13C
MIC (Candida albicans): inactive | MIC (Escherichia coli): 64 µg/mL (≈ 154 µM) | MIC (Micrococcus luteus): inactive | MIC (Vibrio alginolyticus): inactive | mortality at 100 ug/ml [1]: < 60%

O=C(N[C@H](CO)[C@H](O)c1ccc([N+](=O)[O-])cc1)C(Cl)Cl [CHLORAMPHENICOL]
MIC (Escherichia coli): 2 µg/mL (≈ 6.19 µM) | MIC (Micrococcus luteus): 2 µg/mL (≈ 6.19 µM) | MIC (Vibrio alginolyticus): 4 µg/mL (≈ 12.4 µM)

C[C@@H]1[C@H](O)[C@@H](C)/C=C/C=C/C=C/C=C/C=C/C=C/C=C/[C@H](O[C@@H]2O[C@H](C)[C@@H](O)[C@H](N)[C@@H]2O)C[C@@H]2O[C@](O)(C[C@@H](O)C[C@@H](O)[C@H](O)CC[C@@H](O)C[C@@H](O)CC(=O)O[C@H]1C)C[C@H](O)[C@H]2C(=O)O [AMPHOTERICIN B]
MIC (Candida albicans): 2 µg/mL (≈ 2.16 µM)

CC1=CC(=O)C(C)=C2O[C@@]3(C[C@]12C)[C@@H](C)CC[C@H]1C(C)(C)[C@@H](O)CC[C@@]13C
MIC (Candida albicans): 32 µg/mL (≈ 85.9 µM) | MIC (Escherichia coli): 32 µg/mL (≈ 85.9 µM) | MIC (Micrococcus luteus): 8 µg/mL (≈ 21.5 µM) | MIC (Vibrio alginolyticus): 32 µg/mL (≈ 85.9 µM) | mortality at 100 ug/ml [1]: < 60%
